Data: patent US10322037B2, “Absorbent article” (UNICHARM CORPORATION, priority 2012, dated 2019)

Excerpt: As used herein, the term “solubility” in regard to water solubility includes cases where the sample completely dissolves in deionized water to form a homogeneous mixture, and cases where the sample is completely emulsified. As used herein, “completely” means that no mass of the sample remains in the deionized water.

| Water solubility [g] | SMILES |
| --- | --- |
| <0.05 | CCCCCCCCCCCCOC(=O)CCCCCCCCCCC [2-18] |
| <0.05 | CCCCCCCCCCCCCC(=O)OCCCCCCCCCCCC [2-19] |
